Measurements from the supplement of paper PMC10307832.

Experiments:
Assay in all cases: relative viability (nuclei count vs DMSO), 5 days (fraction); higher = more cells survive
TPCA-1 + Pictilisib = compound: C1=CC(=CC=C1C2=CC(=C(S2)NC(=O)N)C(=O)N)F [TPCA-1] + CS(=O)(=O)N1CCN(Cc2cc3nc(-c4cccc5[nH]ncc45)nc(N4CCOCC4)c3s2)CC1 [Pictilisib] (partner 1 µM)
Method in brief: (§1)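 Medians of duplicate plates are given as relative viability. That measure is the nuclei count in treated wells divided by the count in vehicle wells. Counts were taken on 4× images of lung cancer cell lines in 1536-well plates, 5 days after pin-tool dosing the day after seeding with one drug alone or a fixed anchor-drug dose plus five library-drug doses (not always all listed) in √10 steps.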

[1] = compound: C[C@]12O[C@H](C[C@]1(O)CO)n1c3ccccc3c3c4c(c5c6ccccc6n2c5c31)CNC4=O [Lestaurtinib] + CCNC(=O)c1noc(-c2cc(C(C)C)c(O)cc2O)c1-c1ccc(CN2CCOCC2)cc1 [Luminespib] (partner 0.01 µM)
Method in brief: as §1

[2] = compound: C1/C(=C\C2=CC=CS2)/C(=O)/C(=C/C3=CC=CS3)/C1 + Cc1nc(Nc2ncc(C(=O)Nc3c(C)cccc3Cl)s2)cc(N2CCN(CCO)CC2)n1 [Dasatinib] (partner 0.075 µM)
Method in brief: as §1

Lestaurtinib + Lapatinib = compound: C[C@]12O[C@H](C[C@]1(O)CO)n1c3ccccc3c3c4c(c5c6ccccc6n2c5c31)CNC4=O [Lestaurtinib] + CS(=O)(=O)CCNCc1ccc(-c2ccc3ncnc(Nc4ccc(OCc5cccc(F)c5)c(Cl)c4)c3c2)o1 [Lapatinib] (partner 2 µM)
Method in brief: as §1

Cell Line | relative viability (TPCA-1 + Pictilisib; first compound 0.04 µM) | relative viability (TPCA-1 + Pictilisib; first compound 0.1265 µM) | relative viability (TPCA-1 + Pictilisib; first compound 0.4 µM) | relative viability (TPCA-1 + Pictilisib; first compound 1.265 µM) | relative viability (TPCA-1 + Pictilisib; first compound 4 µM) | relative viability ([1]; first compound 0.005 µM) | relative viability ([1]; first compound 0.01581 µM) | relative viability ([1]; first compound 0.05 µM) | relative viability ([1]; first compound 0.1581 µM) | relative viability ([1]; first compound 0.5 µM) | relative viability ([2]; first compound 0.2 µM) | relative viability ([2]; first compound 0.6325 µM) | relative viability ([2]; first compound 2 µM) | relative viability ([2]; first compound 6.325 µM) | relative viability ([2]; first compound 20 µM) | relative viability (Lestaurtinib + Lapatinib; first compound 0.005 µM) | relative viability (Lestaurtinib + Lapatinib; first compound 0.01581 µM) | relative viability (Lestaurtinib + Lapatinib; first compound 0.05 µM) | relative viability (Lestaurtinib + Lapatinib; first compound 0.1581 µM) | relative viability (Lestaurtinib + Lapatinib; first compound 0.5 µM)
NCI-H2087 | 1.23 | 0.785 | 0.823 | 0.626 | 0.203 | 0.158 | 0.253 | 0.163 | 0.148 | 0.165 | 0.942 | 0.879 | 1.03 | 0.655 | 0.878 | 1.31 | 1.05 | 0.858 | 0.693 | 0.205
NCI-H661 | 0.467 | 0.325 | 0.452 | 0.347 | 0.321 | 0.895 | 0.88 | 0.853 | 0.729 | 0.363 | 0.998 | 0.801 | 0.811 | 0.833 | 0.85 | 0.466 | 0.608 | 0.444 | 0.444 | 0.323
EMC-BAC-2 | 0.59 | 0.475 | 0.55 | 0.318 | 0.406 | 1.15 | 1.33 | 0.806 | 0.434 | 0.323 | 0.359 | 0.372 | 0.366 | 0.306 | 0.431 | 0.921 | 0.968 | 0.865 | 0.669 | 0.309
NCI-H1355 | 0.487 | 0.325 | 0.427 | 0.227 | 0.224 | 0.646 | 0.625 | 0.455 | 0.493 | 0.261 | 0.772 | 0.701 | 0.712 | 0.598 | 0.682 | 1.06 | 1.03 | 0.942 | 0.732 | 0.658
NCI-H23 | 0.529 | 0.342 | 0.519 | 0.5 | 0.184 | 0.241 | 0.217 | 0.242 | 0.184 | 0.188 | 0.742 | 0.832 | 1.07 | 0.804 | 0.692 | 1.21 | 1.19 | 0.776 | 0.888 | 0.212
NCI-H1651 | 0.637 | 0.487 | 0.561 | 0.657 | 0.436 | 0.866 | 0.938 | 0.897 | 0.806 | 0.461 | 0.435 | 0.504 | 0.417 | 0.425 | 0.401 | 0.756 | 0.93 | 0.715 | 0.636 | 0.211
NCI-H1975 | 0.278 | 0.259 | 0.264 | 0.233 | 0.16 | 0.538 | 0.171 | 0.199 | 0.137 | 0.159 | 0.445 | 0.328 |  | 0.206 | 0.387 | 0.902 | 0.812 | 0.475 | 0.422 | 0.155
COR-L23 | 0.964 | 0.671 | 0.829 | 0.716 | 0.438 | 0.558 | 0.756 | 0.226 | 0.288 | 0.164 | 0.571 | 0.48 | 0.571 | 0.429 | 0.492 | 1.08 | 1.24 |  | 0.623 | 0.271
LOU-NH91 | 0.527 | 0.438 | 0.563 | 0.507 | 0.469 | 0.341 | 0.262 | 0.254 | 0.301 | 0.224 | 0.559 | 0.582 | 0.585 | 0.514 | 0.531 | 0.768 | 0.721 | 0.638 | 0.562 | 0.404
NCI-H647 | 0.494 | 0.283 | 0.42 | 0.236 | 0.217 | 0.153 | 0.115 | 0.12 | 0.0972 | 0.0647 | 0.214 | 0.145 | 0.19 | 0.211 | 0.16 | 0.837 | 0.735 | 0.217 | 0.146 | 0.114
NCI-H1915 | 1.27 | 0.906 | 1.05 | 0.876 | 0.477 | 0.766 | 0.893 | 0.471 | 0.663 | 0.259 | 0.337 | 0.335 | 0.328 | 0.202 | 0.321 | 0.971 | 1.12 | 0.922 | 0.82 | 0.294
NCI-H1734 | 0.53 | 0.353 | 0.447 | 0.518 | 0.264 | 0.2 | 0.0895 | 0.185 | 0.159 | 0.155 | 0.458 | 0.49 | 0.498 | 0.458 | 0.497 | 1.09 | 1.22 | 0.808 | 0.895 | 0.199
NCI-H1993 | 0.883 |  | 0.939 | 0.911 | 0.723 | 0.692 | 0.442 | 0.831 | 0.523 | 0.569 | 0.545 | 0.48 | 0.616 | 0.457 | 0.649 | 0.805 | 0.848 | 0.678 | 0.595 | 0.602
LK-2 | 0.721 | 0.349 | 0.615 | 0.662 | 0.442 | 0.202 | 0.19 | 0.17 | 0.208 | 0.203 | 0.359 | 0.443 | 0.345 | 0.29 | 0.346 | 0.89 | 1.07 | 0.64 | 0.496 | 0.283
NCI-H2405 | 0.487 | 0.353 | 0.493 |  | 0.364 | 0.747 | 0.631 | 0.585 | 0.548 | 0.262 | 0.223 | 0.212 | 0.224 | 0.211 | 0.221 | 1.06 | 1.14 | 1.02 | 0.927 | 0.428
HOP-62 | 0.964 | 0.57 | 0.734 | 0.123 | 0.186 | 0.9 | 1.07 | 0.855 | 0.913 | 0.274 | 0.678 | 0.683 | 0.729 | 0.651 | 0.61 | 0.889 | 1.17 | 1.02 | 1.08 | 0.93
